Among the data in PMC9516332 (Frontiers in Oncology, 2022) are inhibition values, retold here.

Read-outs that look alike come from different tables or passages of the source.

Holding throughout (assay): Kinase panel profiling at 1 µmol/L (MSA or IMAP), percentage inhibition
What all share (type): biochemical

Experiment [1] concerns the target T1, panel of 255 wild-type kinases (Homo sapiens, UniProt P30530).
T1 sequence (P30530 26-894): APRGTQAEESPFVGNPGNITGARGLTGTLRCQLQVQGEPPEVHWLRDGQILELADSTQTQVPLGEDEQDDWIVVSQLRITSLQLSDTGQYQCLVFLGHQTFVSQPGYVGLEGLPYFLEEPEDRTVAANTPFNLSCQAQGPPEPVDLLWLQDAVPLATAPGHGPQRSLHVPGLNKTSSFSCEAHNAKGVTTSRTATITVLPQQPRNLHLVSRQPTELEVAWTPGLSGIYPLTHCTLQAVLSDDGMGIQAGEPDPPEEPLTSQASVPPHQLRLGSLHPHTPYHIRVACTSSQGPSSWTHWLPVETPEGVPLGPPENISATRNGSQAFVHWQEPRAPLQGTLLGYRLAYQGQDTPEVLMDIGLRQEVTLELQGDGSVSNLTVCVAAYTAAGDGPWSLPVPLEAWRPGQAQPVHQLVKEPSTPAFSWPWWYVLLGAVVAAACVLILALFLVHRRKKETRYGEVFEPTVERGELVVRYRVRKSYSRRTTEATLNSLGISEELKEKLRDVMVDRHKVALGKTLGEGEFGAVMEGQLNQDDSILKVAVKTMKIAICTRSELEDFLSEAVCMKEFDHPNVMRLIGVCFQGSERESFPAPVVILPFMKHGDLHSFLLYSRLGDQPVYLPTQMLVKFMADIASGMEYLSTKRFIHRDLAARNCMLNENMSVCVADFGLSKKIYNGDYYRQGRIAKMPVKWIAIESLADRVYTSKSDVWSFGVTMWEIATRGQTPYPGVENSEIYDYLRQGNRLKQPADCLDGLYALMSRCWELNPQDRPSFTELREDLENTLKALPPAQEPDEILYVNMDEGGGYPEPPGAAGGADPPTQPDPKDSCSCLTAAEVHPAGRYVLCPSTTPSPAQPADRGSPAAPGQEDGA
The note with it: read-out: %-inhibition AXL.

Experiment [2] deals with panel of 255 wild-type kinases (Homo sapiens, UniProt P11309). The conditions noted are these: read-out: %-inhibition at 1 µmol/L, PIM1.
Experiment [3] has as its target panel of 255 wild-type kinases (Homo sapiens, UniProt P08069). The note with it: read-out: %-inhibition at 1 µmol/L, IGF1R.
The target in experiment [4] is T2, panel of 255 wild-type kinases (Homo sapiens, UniProt O43781).
T2 sequence (O43781 1-588): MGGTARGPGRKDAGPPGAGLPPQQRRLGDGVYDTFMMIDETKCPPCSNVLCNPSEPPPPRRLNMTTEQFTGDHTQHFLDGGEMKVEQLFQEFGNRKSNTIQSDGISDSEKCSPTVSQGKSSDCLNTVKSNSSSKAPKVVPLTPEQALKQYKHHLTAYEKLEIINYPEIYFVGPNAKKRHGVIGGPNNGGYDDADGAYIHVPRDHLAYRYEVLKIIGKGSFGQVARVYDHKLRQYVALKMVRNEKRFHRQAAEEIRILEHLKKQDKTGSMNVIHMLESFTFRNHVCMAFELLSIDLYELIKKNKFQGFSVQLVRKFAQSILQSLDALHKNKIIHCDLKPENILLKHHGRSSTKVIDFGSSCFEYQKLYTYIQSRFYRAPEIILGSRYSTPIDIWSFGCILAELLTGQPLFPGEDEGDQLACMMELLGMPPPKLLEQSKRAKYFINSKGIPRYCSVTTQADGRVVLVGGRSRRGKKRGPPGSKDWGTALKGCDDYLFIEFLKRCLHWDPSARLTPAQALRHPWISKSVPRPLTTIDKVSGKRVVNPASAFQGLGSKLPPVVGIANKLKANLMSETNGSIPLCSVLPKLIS
The note with it: read-out: %-inhibition at 1 µmol/L, DYRK3.

Experiment [5] addresses panel of 255 wild-type kinases (Homo sapiens, UniProt Q9H1R3). The conditions noted are these: read-out: %-inhibition at 1 µmol/L, skMLCK.
For experiment [6], the target named is panel of 255 wild-type kinases (Homo sapiens, UniProt Q9BUB5). The conditions noted are these: read-out: %-inhibition, MNK1.
Experiment [7] deals with panel of 255 wild-type kinases (Homo sapiens, UniProt Q96SB4). The note with it: read-out: %-inhibition at 1 µmol/L, SRPK1.
The target of experiment [8] is panel of 255 wild-type kinases (Homo sapiens, UniProt Q9UQM7). The note with it: read-out: %-inhibition CaMK2α.
Experiment [9] deals with panel of 255 wild-type kinases (Homo sapiens, UniProt P00533). The note with it: read-out: %-inhibition at 1 µmol/L, EGFR.
The target of experiment [10] is panel of 255 wild-type kinases (Homo sapiens, UniProt Q04759). The note with it: read-out: %-inhibition at 1 µmol/L, PKCθ.
Experiment [11] has as its target panel of 255 wild-type kinases (Homo sapiens, UniProt P06239). The conditions noted are these: read-out: %-inhibition at 1 µmol/L, LCK.
For experiment [12], the target named is panel of 255 wild-type kinases (Homo sapiens, UniProt P08631). The note with it: read-out: %-inhibition at 1 µmol/L, HCK.
For experiment [13], the target named is panel of 255 wild-type kinases (Homo sapiens, UniProt P45984). The conditions noted are these: read-out: %-inhibition at 1 µmol/L, JNK2.
Experiment [14] concerns the target panel of 255 wild-type kinases (Homo sapiens, UniProt Q5VT25). The conditions noted are these: read-out: %-inhibition, MRCKα.
Experiment [15] concerns the target panel of 255 wild-type kinases (Homo sapiens, UniProt P42685). The note with it: read-out: %-inhibition at 1 µmol/L, FRK.
Setting [16] is: AXL kinase assay, 1 µmol/L single concentration.
Setting [17] is: kinase PIM1, 1 µmol/L single concentration.
Where [18] appears, read: kinase IGF1R, 1 µmol/L single concentration.
Where [19] appears, read: kinase DYRK3, 1 µmol/L single concentration.
The mark [20] stands for this setting: kinase skMLCK, 1 µmol/L single concentration.
[21] abbreviates: MNK1, 1 µmol/L single concentration.
The mark [22] stands for this setting: kinase SRPK1, 1 µmol/L single concentration.
Where [23] appears, read: CaMK2α kinase assay, 1 µmol/L single concentration.
[24] abbreviates: kinase EGFR, 1 µmol/L single concentration.
Setting [25] is: kinase PKCθ, 1 µmol/L single concentration.
Where [26] appears, read: kinase LCK, 1 µmol/L single concentration.
Setting [27] is: kinase HCK, 1 µmol/L single concentration.
Where [28] appears, read: kinase JNK2, 1 µmol/L single concentration.
[29] abbreviates: MRCKα, 1 µmol/L single concentration.
[30] abbreviates: kinase FRK, 1 µmol/L single concentration.

In the case of `Cn1cnc2c(F)c(Nc3ccc(Br)cc3F)c(C(=O)NOCCO)cc21` [binimetinib], the inhibition at 1 µM in experiment [1] (setting [16]) was -1.7%; in experiment [2] (setting [17]) it was -16%; in experiment [3] (setting [18]) it was 4.47%; in experiment [4] (setting [19]), -3.3%; in [5] (setting [20]), -5.4%; in [6] (setting [21]), 1.8%. Moreover, the inhibition at 1 µM in [7] (setting [22]) is -3.37%; in [8] (setting [23]), -4.55%; in [9] (setting [24]) it was 9%; in experiment [10] (setting [25]) it was -2.27%; in experiment [11] (setting [26]), -0.655%; in [12] (setting [27]), -8%. Besides, the inhibition at 1 µM was -5.47% in experiment [13] (setting [28]), -5.53% in experiment [14] (setting [29]) and 3% in [15] (setting [30]).

As for `CNC(=O)c1ccc(-c2cnc3ncc(Cc4ccc5ncccc5c4)n3n2)cc1F` [capmatinib], the inhibition at 1 µM is 34% in experiment [1]; -9% in experiment [2]; 5.7% in experiment [3]; 4.5% in [4]; -2% in [5]; -1% in [6]. For the same compound, the inhibition at 1 µM in [7] was -6%; in experiment [8], -0.603%; in experiment [9] it was 17%; in [10], -5.31%; in experiment [11], 4.23%; in experiment [12] it was -1.63%. The inhibition at 1 µM is -0.668% in experiment [13], 0.535% in experiment [14] and -2% in [15].

`COc1cc2ncnc(Nc3ccc(F)c(Cl)c3)c2cc1NC(=O)/C=C/CN1CCCCC1` [dacomitinib]: the inhibition at 1 µM amounted to 40% in [1] (setting [16]); 32% in [2] (setting [17]); 3.29% in experiment [3] (setting [18]); 18% in [4] (setting [19]); 10% in experiment [5] (setting [20]); 91% in experiment [6] (setting [21]). Moreover, the inhibition at 1 µM is -9.5% in experiment [7] (setting [22]); -1.13% in experiment [8] (setting [23]); 103% in [9] (setting [24]); 1.57% in experiment [10] (setting [25]); 93% in [11] (setting [26]); 57% in experiment [12] (setting [27]). The inhibition at 1 µM in experiment [13] (setting [28]) was determined as 1.27%; in experiment [14] (setting [29]), 4.59%; in experiment [15] (setting [30]) it was 70%.

Regarding `C[C@H](Nc1ncnc2nc[nH]c12)c1cc2cccc(Cl)c2c(=O)n1-c1ccccc1` [duvelisib], the inhibition at 1 µM in experiment [1] (setting [16]) is -0.298%; in experiment [2] (setting [17]), -0.908%; in experiment [3] (setting [18]), 1.51%; in experiment [4] (setting [19]), -2%; in experiment [5] (setting [20]), -7%; in experiment [6] (setting [21]) it was 0.446%. In addition, the inhibition at 1 µM in [7] (setting [22]) stood at 4%; in experiment [8] (setting [23]) it was 0.0129%; in experiment [9] (setting [24]), 6%; in [10] (setting [25]), 1.09%; in experiment [11] (setting [26]), 7%; in experiment [12] (setting [27]) it was 6%. Moreover, the inhibition at 1 µM is 2% in experiment [13] (setting [28]), -3.44% in experiment [14] (setting [29]) and -2.26% in experiment [15] (setting [30]).

For `COC(=O)N[C@@H](C)CNc1nccc(-c2cn(C(C)C)nc2-c2cc(Cl)cc(NS(C)(=O)=O)c2F)n1` [encorafenib], the inhibition at 1 µM in [1] (setting [16]) was 0.276%; in experiment [2] (setting [17]) it was 10%; in experiment [3] (setting [18]), 6.61%; in [4] (setting [19]) it was -1.06%; in experiment [5] (setting [20]), -4.51%; in [6] (setting [21]), 4.33%. The inhibition at 1 µM was -5% in experiment [7] (setting [22]); -2.55% in experiment [8] (setting [23]); 9% in [9] (setting [24]); 2% in [10] (setting [25]); 1.39% in experiment [11] (setting [26]); -5.46% in experiment [12] (setting [27]). The figures for the inhibition at 1 µM in [13] (setting [28]), in experiment [14] (setting [29]) and in [15] (setting [30]) were 61%, 0.0684% and 8%, respectively.
